Measurements reported in PubChem BioAssay (NCI).
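Results reflect a 48-hour exposure of cells in 96-well plates to compound at five concentrations. Here, GI50 denotes the concentration required for 50% inhibition of growth. Definition used: TGI = concentration required for complete inhibition of growth.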

Key:
Assay in all cases: inhibition of tumour cell growth, NCI panel, 48 h
[1] = test system: OVCAR-5 ovarian
[2] = test system: OVCAR-8 ovarian
[3] = test system: NCI-H23 lung
[4] = test system: HT29 colon
[5] = test system: CCRF-CEM leukemia
[6] = test system: UACC-62 melanoma
[7] = test system: HOP-92 NSCLC
[8] = test system: IGROV1 ovarian
[9] = test system: HS 578T breast
[10] = test system: MDA-MB-231 breast

N#Cc1cccc(C2SCc3nc4ccccc4n32)c1 (stereo not drawn)
TGI [1]: > 100 µM | TGI [2]: > 100 µM | TGI [3]: > 100 µM | TGI [4]: > 100 µM | TGI [5]: > 100 µM | TGI [6]: > 100 µM | TGI [7]: > 100 µM | TGI [8]: > 100 µM

Cc1c(Cl)ccc2[s+]snc12
TGI [1]: > 100 µM | TGI [2]: 57.1 µM | TGI [3]: > 100 µM | TGI [4]: > 100 µM | TGI [5]: 82.6 µM | TGI [6]: 45.2 µM | TGI [8]: > 100 µM

O=C1C(=C2C(=O)c3ccccc3[N+]2=O)N([O-])c2ccccc21
TGI [1]: > 100 µM | TGI [2]: 50.4 µM | TGI [3]: 77.7 µM | TGI [4]: 94.1 µM | TGI [5]: 63.8 µM | TGI [8]: > 100 µM

C#CC[C@]12CC(=O)CC[C@H]1CC1(C2)OCCO1
TGI [2]: > 100 µM | TGI [5]: > 100 µM | TGI [6]: > 100 µM | TGI [8]: > 100 µM

N=C(N)c1ccc(-c2ccc(-c3cccs3)s2)cc1F
GI50 [1]: 1.02 µM | TGI [1]: 2.36 µM | GI50 [9]: 1.8 µM | TGI [9]: 4.49 µM | GI50 [2]: 2.04 µM | TGI [2]: 5.19 µM | GI50 [3]: 1.63 µM | TGI [3]: 3.27 µM | GI50 [5]: 1.58 µM | TGI [5]: 3.46 µM | GI50 [6]: 1.62 µM | TGI [6]: 3.34 µM | GI50 [7]: 0.576 µM | TGI [7]: 2.21 µM | GI50 [8]: 2.28 µM | TGI [8]: 4.74 µM | GI50 [10]: 1.16 µM | TGI [10]: 2.93 µM

O=C(CC1(O)C(=O)Nc2ccc(Br)cc21)c1cccc([N+](=O)[O-])c1 (stereo not drawn)
TGI [1]: > 100 µM | TGI [2]: > 100 µM | TGI [3]: > 100 µM | TGI [4]: > 100 µM | TGI [5]: 99.6 µM | TGI [7]: 74.6 µM

O=C(c1ccccc1)N1CCc2c([nH]c3ccccc23)C1
TGI [1]: > 100 µM | TGI [2]: > 100 µM | TGI [3]: > 100 µM | TGI [4]: > 100 µM | TGI [5]: > 100 µM | TGI [6]: > 100 µM | TGI [7]: > 100 µM | TGI [8]: > 100 µM

C/C=C/C(C/C=C(\C)CO[Si](C)(C)C(C)(C)C)O[Si](C)(C)C(C)(C)C (stereo not drawn)
TGI [1]: > 100 µM | TGI [9]: > 100 µM | TGI [2]: > 100 µM | TGI [3]: > 100 µM | TGI [4]: > 100 µM | TGI [5]: > 100 µM | TGI [6]: > 100 µM | TGI [8]: > 100 µM | TGI [10]: > 100 µM

CC1(C)OC2OC(/C=C/[N+](=O)[O-])C3OC(C)(C)OC3C2O1 (stereo not drawn)
TGI [1]: 38.1 µM | TGI [2]: 40.9 µM | TGI [3]: 37.6 µM | TGI [4]: 40.1 µM | TGI [5]: > 75.7 µM | TGI [6]: 28.6 µM | TGI [7]: 19.6 µM | TGI [8]: > 74.4 µM

COc1cc(CC2c3cc(OC)c(OC)cc3CCN2C)c(C(=O)O)cc1OC (stereo not drawn)
TGI [1]: > 100 µM | TGI [2]: > 100 µM | TGI [3]: > 100 µM | TGI [4]: > 100 µM | TGI [5]: > 100 µM | TGI [6]: > 100 µM | TGI [7]: > 100 µM

COC(=O)N1C=Cc2c(c(C)c3c([nH]c4ccccc43)c2C)C1C (stereo not drawn)
TGI [1]: 34.5 µM | TGI [2]: 39.8 µM | TGI [3]: 36.2 µM | TGI [4]: 26.5 µM | TGI [5]: 54.4 µM | TGI [6]: 34.9 µM | TGI [7]: 36.5 µM | TGI [8]: 48.7 µM

N#CC1(C2CC(=O)N(c3ccccc3)C2=O)CCCCC1=O (stereo not drawn)
TGI [1]: > 100 µM | TGI [2]: > 100 µM | TGI [3]: > 100 µM | TGI [4]: > 100 µM | TGI [5]: > 100 µM | TGI [6]: > 100 µM | TGI [8]: > 100 µM

Cc1cc2c(=O)cc(-c3ccncc3)oc2c(C(N)=O)c1C
TGI [1]: > 100 µM | TGI [2]: > 100 µM | TGI [3]: > 100 µM | TGI [4]: > 100 µM | TGI [5]: > 100 µM | TGI [6]: > 100 µM | TGI [7]: > 100 µM | TGI [8]: > 100 µM

CC[C@H]1CNC(=O)CC1CC(=O)OC (stereo partly drawn)
TGI [1]: > 100 µM | TGI [2]: > 100 µM | TGI [3]: > 100 µM | TGI [4]: > 100 µM | TGI [6]: > 100 µM | TGI [8]: > 100 µM

O=C(Nc1cc(Cl)ccc1Cl)c1cc2ccccc2oc1=O
TGI [2]: > 100 µM | TGI [3]: > 100 µM | TGI [4]: > 100 µM | TGI [5]: > 100 µM | TGI [6]: > 100 µM | TGI [8]: > 100 µM

CN(C)c1ccc(-c2cc(-c3cccc(NS(C)(=O)=O)c3)nc(N)c2C#N)cc1
GI50 [1]: 0.121 µM | TGI [1]: > 74.8 µM | GI50 [9]: 0.0292 µM | TGI [9]: 49.2 µM | GI50 [2]: 0.0515 µM | TGI [2]: > 87.8 µM | GI50 [3]: 0.0457 µM | TGI [3]: 20.5 µM | GI50 [4]: 0.0319 µM | TGI [4]: 0.457 µM | GI50 [5]: 0.0379 µM | TGI [5]: > 100 µM | GI50 [6]: 0.0357 µM | TGI [6]: 19.8 µM | GI50 [8]: 0.0624 µM | TGI [8]: 30.8 µM | GI50 [10]: 0.11 µM | TGI [10]: 1.52 µM

O=C(/C=C/c1c[nH]c2ccccc12)c1ccccc1O
TGI [1]: 28.8 µM | TGI [9]: 66.7 µM | TGI [2]: 39.2 µM | TGI [4]: 33.9 µM | TGI [6]: 21 µM | TGI [7]: 17.1 µM | TGI [8]: 36.4 µM | TGI [10]: 18.4 µM

CCn1nc(C#Cc2c(C)ccc3c(Nc4ccc(Cl)cc4)nccc23)c2c(N)ncnc21
GI50 [1]: 9.19 µM | TGI [1]: > 100 µM | GI50 [2]: 4.35 µM | TGI [2]: > 100 µM | GI50 [3]: 3.58 µM | TGI [3]: > 100 µM | GI50 [4]: 2.32 µM | TGI [4]: > 100 µM | GI50 [5]: 3.31 µM | TGI [5]: > 100 µM | GI50 [6]: 1.6 µM | TGI [6]: 9.1 µM | GI50 [7]: 1.79 µM | TGI [7]: 9.06 µM | GI50 [8]: 3.09 µM | TGI [8]: > 100 µM | GI50 [10]: 1.89 µM | TGI [10]: 27.8 µM

CCCCP1(=O)C=CC(Cl)=C(C)C1 (stereo not drawn)
TGI [1]: > 100 µM | TGI [2]: > 100 µM | TGI [3]: > 100 µM | TGI [4]: > 100 µM | TGI [5]: > 100 µM | TGI [6]: > 100 µM | TGI [7]: > 100 µM | TGI [8]: > 100 µM

CC1(C)N=C(N)N=C(N)N1c1cccc(CC(=O)Nc2ccccc2)c1
GI50 [1]: > 100 µM | TGI [1]: > 100 µM | GI50 [9]: 11.5 µM | TGI [9]: 73.2 µM | GI50 [2]: 76.8 µM | TGI [2]: > 100 µM | GI50 [3]: 14.8 µM | TGI [3]: > 100 µM | GI50 [4]: 2.35 µM | TGI [4]: > 100 µM | GI50 [5]: 18.2 µM | TGI [5]: > 100 µM | GI50 [6]: 8.3 µM | TGI [6]: > 100 µM | GI50 [8]: 8.48 µM | TGI [8]: > 100 µM | GI50 [10]: > 100 µM | TGI [10]: > 100 µM

COc1cc(Br)c(C2OCCCO2)cc1OCc1ccccc1
TGI [1]: > 100 µM | TGI [2]: > 100 µM | TGI [3]: > 100 µM | TGI [4]: > 100 µM | TGI [5]: > 100 µM | TGI [6]: > 100 µM | TGI [7]: 64.3 µM | TGI [8]: > 100 µM

C/C(=N\NC(N)=S)c1ccc(Oc2ccccc2)cc1
TGI [2]: 52.3 µM | TGI [3]: 83.3 µM | TGI [5]: 37.2 µM | TGI [6]: 28.8 µM | TGI [7]: 9.48 µM | TGI [8]: 12.5 µM

O=P(c1ccccc1)(c1ccccc1)C1CC=C2CCCCCC2C1 (stereo not drawn)
TGI [1]: 62.2 µM | TGI [2]: 99.2 µM | TGI [3]: > 100 µM | TGI [4]: > 100 µM | TGI [5]: 61.5 µM | TGI [6]: 69.6 µM | TGI [7]: 39.9 µM | TGI [8]: > 100 µM
